In article PMC7564829, “Potent Broad-Spectrum Antibacterial Activity of Amphiphilic Peptides against Multidrug-Resistant Bacteria” (Microorganisms, 2020):

Legend:
[1] = Hydrophobicity by RP-HPLC (percent acetonitrile at elution); assay type: physicochemical; conditions: acetonitrile in water, 0.1% (v/v) TFA, higher percent = higher hydrophobicity
Description: All peptides used in this study were synthesized by GL Biochem (Shanghai, China) using a solid phase peptide synthesis (SPPS) method, and their accurate molecular weights were determined by matrix-assisted laser desorption/ionization time-of-flight mass spectrometry (MALDI-TOF MS). The peptide purity (>95%) and retention time were determined by reversed-phase high-performance liquid chromatography (HPLC).
A collection of tryptophan-rich linear peptides on the basis of MP196 (RWRWRW-NH2) was designed by increasing peptide length or positive charge or hydrophobicity, replacing amino acids and/or N-terminal acetylation (Table 1). These peptides were synthesized via solid-phase peptide synthesis (SPPS), purified by reverse-phase high-performance liquid chromatography (RP-HPLC) (Figure S1) and validated by matrix-assisted laser desorption/ionization time-of-flight mass spectrometry (MALDI-TOF MS) (Figure S2). […] All engineered peptides belong to cationic AMPs, with 3 or 6 net charges. The percentage of acetonitrile at RP-HPLC elution was regarded as a relative measure of peptides’ hydrophobicity. […] The hydrophobicity order was listed as follows: WRK-12 > WL-9 > WR-6 > WV-9 > KW-6 > WKK-12 > WR-12 > MP196 > WK-6.

[2] = system: E. coli 1F28; experiment: ROS measurements (DCFH-DA); assay type: cell-based; conditions: 0 to 128 μg/mL, 60 min
Description: 2′,7′-Dichlorodihydrofluorescein diacetate (DCFH-DA, 10 μM) was incubated with E. coli 1F28 cells for 30 min. After washing with 0.01 M PBS, the probed cells were mixed with WRK-12 (0 to 128 μg/mL) or colistin (128 μg/mL) for 60 min. The ROS levels were assessed by monitoring the fluorescence intensity (λexcitation = 488 nm, λemission = 525 nm) using a Microplate reader (Tecan, Männedorf, Switzerland).

[3] = in 0.01 M PBS or water; compared among four active AMPs
[4] = biological target: papain (Carica papaya, UniProt P00784); experiment: Proteolytic stability (residual antibacterial activity by MIC); assay type: in vitro ADME; conditions: papain 10 mg/mL, 1 h preincubation; residual MIC against E. coli 1F28
Text: Thermal, pH and proteolytic stability.

Sequence of papain (P00784 134-345): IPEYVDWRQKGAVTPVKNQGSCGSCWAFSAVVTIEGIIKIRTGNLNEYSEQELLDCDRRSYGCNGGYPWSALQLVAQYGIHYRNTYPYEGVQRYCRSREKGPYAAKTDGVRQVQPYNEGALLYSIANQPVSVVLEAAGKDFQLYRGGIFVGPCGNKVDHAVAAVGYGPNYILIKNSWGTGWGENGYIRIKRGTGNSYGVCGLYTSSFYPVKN

Ac-WRLRWKTRWRLK-NH2 [WRK-12]
H (hydrophobicity, percent of acetonitrile at HPLC elution) [1]: 36.513 percent acetonitrile
ROS production, DCFH-DA fluorescence [2]: triggered the production of ROS in a concentration-dependent manner
solubility [3]: highest solubility
proteolytic stability [4]: sensitive
